Laboratory results from patent publication US6420571B2, “Methods for preparing antiviral calanolide compounds” (Sarawak MediChem Pharmaceuticals, Inc., priority 1999, dated 2002).

Assays:
[1] = tested on: AZT-resistant G-9106 strain of HIV; details: cited from earlier work
[2] = tested on: pyridinone-resistant A17 virus; details: cited from earlier work
HIV-1 [3] = details: CEM-SS cells; read-out: EC50, HIV-1 replication; cited from earlier work
HIV-1 [4] = details: down to a concentration of 0.1 μM; cited from earlier work

melting point | Structure (SMILES) | activity against AZT-resistant G-9106 strain of HIV [1] | activity against pyridinone-resistant A17 virus [2] | EC50 (HIV-1 [3]) | protection against the cytopathic effects of HIV-1 (HIV-1 [4])
158 to 160 °C | CCCc1cc(=O)oc2cc(OC(=O)C(C)(C)C)cc(O)c12 | – | – | – | –
– | CCCc1cc(=O)oc2c3c(c4c(c12)OC(C)(C)C=C4)O[C@H](C)[C@@H](C)[C@@H]3O [(+)-calanolide A] | active | active | 0.1 µM | 100%
